Experimental data reported in US8618107B2 (Gilead Connecticut, Inc., priority 2010, dated 2013).

molecular target: Btk (Homo sapiens (Human), UniProt Q06187); assay: standard biochemical Btk Kinase Assay (Example 901); conditions: Table 1
Sequence (Q06187 whole entry): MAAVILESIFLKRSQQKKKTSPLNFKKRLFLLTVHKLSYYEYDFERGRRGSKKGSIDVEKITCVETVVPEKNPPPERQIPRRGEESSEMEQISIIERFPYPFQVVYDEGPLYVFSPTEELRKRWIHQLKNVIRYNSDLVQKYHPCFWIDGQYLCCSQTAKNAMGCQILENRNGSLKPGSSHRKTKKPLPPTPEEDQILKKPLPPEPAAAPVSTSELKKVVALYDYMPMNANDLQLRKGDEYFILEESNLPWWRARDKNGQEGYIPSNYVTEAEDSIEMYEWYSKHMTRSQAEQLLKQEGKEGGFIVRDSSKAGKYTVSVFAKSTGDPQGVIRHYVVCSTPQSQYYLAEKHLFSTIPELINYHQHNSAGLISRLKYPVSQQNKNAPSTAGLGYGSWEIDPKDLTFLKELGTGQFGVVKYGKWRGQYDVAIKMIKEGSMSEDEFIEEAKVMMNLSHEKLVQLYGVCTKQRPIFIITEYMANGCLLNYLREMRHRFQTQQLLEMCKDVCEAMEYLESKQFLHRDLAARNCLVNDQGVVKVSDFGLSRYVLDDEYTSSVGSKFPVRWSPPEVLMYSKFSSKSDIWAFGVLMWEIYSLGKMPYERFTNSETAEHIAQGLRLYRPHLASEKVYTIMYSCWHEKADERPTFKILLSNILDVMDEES
From the text: Determination of IC50 values can be accomplished using conventional techniques known in the art. In general, an IC50 can be determined by measuring the activity of a given enzyme in the presence of a range of concentrations of the inhibitor under study. The experimentally obtained values of enzyme activity then are plotted against the inhibitor concentrations used. […] Analogously, other inhibitory concentrations can be defined through appropriate determinations of activity.

Row | IC50 | SMILES
1 | 2 nM | Cc1c(-c2cc(Nc3cc4n(n3)CCN(C)C4)c(=O)[nH]n2)cccc1N1CCn2c(cc3c2CCCC3)C1=O [Example 101]
2 | 22.9 nM | Cc1c(-c2cc(Nc3cc4n(n3)CCN(C)C4)c(=O)[nH]n2)cccc1N1CCn2c(cc3ccccc32)C1=O [Example 102]
3 | 3200 nM | Cc1c(-c2cc(Nc3cc4n(n3)CCN(C)C4)c(=O)n(C)n2)cccc1N1Cc2c(sc3ccccc23)C1=O [Example 103, 4-{2-Methyl-3-[1-methyl-5-({5-methyl-4H,5H,6H,7H-pyrazolo[1,5-a]pyrazin-2-yl}amino)-6-oxo-1,6-dihydropyridazin-3-yl]phenyl}-7-thia-4-azatricyclo[6.4.0.0^2,6]dodeca-1(8),2(6),9,11-tetraen-5-one]
4 | 1 nM | Cn1cc(-c2cccc(N3CCn4c(cc5c4CCCC5)C3=O)c2CO)cc(Nc2cc(C3CC3)[nH]n2)c1=O [Example 106, 2-(3-(5-(5-cyclopropyl-1H-pyrazol-3-ylamino)-1-methyl-6-oxo-1,6-dihydropyridin-3-yl)-2-(hydroxymethyl)phenyl)-3,4,6,7,8,9-hexahydropyrazino[1,2-a]indol-1(2H)-one]
5 | 10.1 nM | Cn1cc(-c2cccc(N3CCn4c(cc5c4CCCC5)C3=O)c2CO)cc(Nc2ccc(N3CCOCC3)cn2)c1=O [Example 107, 2-(2-(hydroxymethyl)-3-(1-methyl-5-(5-morpholinopyridin-2-ylamino)-6-oxo-1,6-dihydropyridin-3-yl)phenyl)-3,4,6,7,8,9-hexahydropyrazino[1,2-a]indol-1(2H)-one]
6 | 6.1 nM | CC(=O)N1CCn2nc(Nc3cc(-c4cccc(N5CCn6c(cc7c6CCCC7)C5=O)c4CO)cn(C)c3=O)cc2C1 [Example 108, 2-(3-(5-(5-acetyl-4,5,6,7-tetrahydropyrazolo[1,5-a]pyrazin-2-ylamino)-1-methyl-6-oxo-1,6-dihydropyridin-3-yl)-2-(hydroxymethyl)phenyl)-3,4,6,7,8,9-hexahydropyrazino[1,2-a]indol-1(2H)-one]
7 | 6 nM | Cn1cc(-c2cccc(N3CCc4c(sc5c4CCCC5)C3=O)c2CO)nc(Nc2cnn(CCO)c2)c1=O [Example 116, 5-[3-(6-{[1-(2-Hydroxyethyl)-1H-pyrazol-4-yl]amino}-4-methyl-5-oxo-4,5-dihydropyrazin-2-yl)-2-(hydroxymethyl)phenyl)-8-thia-5-azatricyclo[7.4.0.02,7]trideca-1(9),2(7)-dien-6-one]
8 | 7 nM | Cn1nc(Nc2cc(-c3cccc(N4CCc5c(sc6c5CCCC6)C4=O)c3CO)nn(C)c2=O)cc1C(C)(C)O [Example 119, 5-[2-(hydroxymethyl)-3-(5-{[5-(2-hydroxypropan-2-yl)-1-methyl-1H-pyrazol-3-yl]amino}-1-methyl-6-oxo-1,6-dihydropyridazin-3-yl)phenyl]-8-thia-5-azatricyclo[7.4.0.02,7]trideca-1(9),2(7)-dien-6-one]

same assay, conditions: Table 2

Row | IC50 | SMILES
9 | 5 nM | Cn1cc(-c2cc(F)cc(N3CCn4c(cc5c4CCCC5)C3=O)c2CO)cc(Nc2cc3n(n2)CCOC3)c1=O [Example 149, 2-(3-(5-(6,7-Dihydro-4H-pyrazolo[5,1-c][1,4]oxazin-2-ylamino)-1-methyl-6-oxo-1,6-dihydropyridin-3-yl)-5-fluoro-2-(hydroxymethyl)phenyl)-3,4,6,7,8,9-hexahydropyrazino[1,2-a]indol-1(2H)-one]
10 | 2.8 nM | Cn1cc(-c2cc(F)cc(N3CCn4c(cc5c4CCCC5)C3=O)c2CO)cc(Nc2ccc(C3CCN(C4COC4)CC3)cn2)c1=O [Example 265, 2-(5-Fluoro-2-(hydroxymethyl)-3-(1-methyl-5-(5-(1-(oxetan-3-yl)piperidin-4-yl)pyridin-2-ylamino)-6-oxo-1,6-dihydropyridin-3-yl)phenyl)-3,4,6,7,8,9-hexahydropyrazino[1,2-a]indol-1(2H)-one]
11 | 4.7 nM | CN1CC(c2ccc(Nc3cc(-c4cc(F)cc(N5CCn6c(cc7c6CC(C)(C)C7)C5=O)c4CO)cn(C)c3=O)nc2)C1 [Example 271, 10-[5-Fluoro-2-(hydroxymethyl)-3-(1-methyl-5-{[5-(1-methylazetidin-3-yl)pyridine-2-yl]amino}-6-oxo-1,6-dihydropyridin-3-yl)phenyl]-4,4-dimethyl-1,10-diazatricyclo[6.4.0.0^2,6]dodeca-2(6),7-dien-9-one]
12 | 2.34 nM | Cn1cc(-c2cc(F)cc(N3CCn4c(cc5c4CC(C)(C)C5)C3=O)c2CO)cc(Nc2ccc(CN3CCOCC3)cn2)c1=O [Example 274, 10-[5-Fluoro-2-(hydroxymethyl)-3-(1-methyl-5-{[5-(morpholin-4-ylmethyl)pyridine-2-yl]amino}-6-oxo-1,6-dihydropyridin-3-yl)phenyl]-4,4-dimethyl-1,10-diazatricyclo[6.4.0.0^2,6]dodeca-2(6),7-dien-9-one]
13 | 2.2 nM | Cc1cc(Nc2cc(-c3cc(F)cc(N4CCn5c(cc6c5CC(C)(C)C6)C4=O)c3CO)cn(C)c2=O)n[nH]1 [Example 276, 10-[5-Fluoro-2-(hydroxymethyl)-3-{1-methyl-5-[(5-methyl-1H-pyrazol-3-yl)amino]-6-oxo-1,6-dihydropyridin-3-yl}phenyl]-4,4-dimethyl-1,10-diazatricyclo[6.4.0.0^2,6]dodeca-2(6),7-dien-9-one]
14 | 2.6 nM | CN1CCC(c2ccc(Nc3nc(-c4cc(F)cc(N5CCc6c(sc7c6CC(C)(C)C7)C5=O)c4CO)cn(C)c3=O)cc2)CC1 [Example 278, 10-[5-Fluoro-2-(hydroxymethyl)-3-(4-methyl-6-{[4-(1-methylpiperidin-4-yl)phenyl]amino}-5-oxo-4,5-dihydropyrazin-2-yl)phenyl]-4,4-dimethyl-7-thia-10-azatricyclo[6.4.0.0^2,6]dodeca-1(8),2(6)-dien-9-one]
15 | 5.2 nM | CN1CCC(c2ccc(Nc3nc(-c4cc(F)cc(N5CCc6c(sc7c6CCCC7)C5=O)c4CO)cn(C)c3=O)cc2)CC1 [Example 281, 5-[5-Fluoro-2-(hydroxymethyl)-3-(4-methyl-6-{[4-(1-methylpiperidin-4-yl)phenyl]amino}-5-oxo-4,5-dihydropyrazin-2-yl)phenyl]-8-thia-5-azatricyclo[7.4.0.0^2,7]trideca-1(9),2(7)-dien-6-one]
16 | 4 nM | CN1CCC(c2ccc(Nc3nc(-c4cc(F)cc(N5CCn6c(cc7c6CCCC7)C5=O)c4CO)cn(C)c3=O)cc2)CC1 [Example 282, 2-(5-Fluoro-2-(hydroxymethyl)-3-(4-methyl-6-(4-(1-methylpiperidin-4-yl)phenylamino)-5-oxo-4,5-dihydropyrazin-2-yl)phenyl)-3,4,6,7,8,9-hexahydropyrazino[1,2-a]indol-1(2H)-one]
17 | 8.1 nM | CN1CCc2cc(Nc3nc(-c4cc(F)cc(N5CCn6c(cc7c6CCCC7)C5=O)c4CO)cn(C)c3=O)ccc2C1 [Example 283, 2-(5-Fluoro-2-(hydroxymethyl)-3-(4-methyl-6-(2-methyl-1,2,3,4-tetrahydroisoquinolin-6-ylamino)-5-oxo-4,5-dihydropyrazin-2-yl)phenyl)-3,4,6,7,8,9-hexahydropyrazino[1,2-a]indol-1(2H)-one]
18 | 1.74 nM | CN1CCC[C@@H]1c1ccc(Nc2cc(-c3cc(F)cc(N4CCn5c(cc6c5CC(C)(C)C6)C4=O)c3CO)cn(C)c2=O)nc1 [Example 291, 10-[5-Fluoro-2-(hydroxymethyl)-3-[1-methyl-5-({5-[(2R)-1-methylpyrrolidin-2-yl]pyridine-2-yl}amino)-6-oxo-1,6-dihydropyridin-3-yl]phenyl]-4,4-dimethyl-1,10-diazatricyclo[6.4.0.0^2,6]dodeca-2(6),7-dien-9-one]
19 | 11.6 nM | Cn1cc(-c2cc(F)cc(N3CCn4c(cc5c4CC(C)(C)C5)C3=O)c2CO)cc(Nc2ccc3c(n2)CCN(C2COC2)C3)c1=O [Example 292, 10-[5-Fluoro-2-(hydroxymethyl)-3-(1-methyl-5-{[6-(oxetan-3-yl)-5,6,7,8-tetrahydro-1,6-naphthyridin-2-yl]amino}-6-oxo-1,6-dihydropyridin-3-yl)phenyl]-4,4-dimethyl-1,10-diazatricyclo[6.4.0.0^2,6]dodeca-2(6),7-dien-9-one]
20 | 9.8 nM | CN1CC(Oc2ccc(Nc3cc(-c4cc(F)cc(N5CCn6c(cc7c6CCCC7)C5=O)c4CO)cn(C)c3=O)nc2)C1 [Example 293, 2-(5-Fluoro-2-(hydroxymethyl)-3-(1-methyl-5-(5-(1-methylazetidin-3-yloxy)pyridin-2-ylamino)-6-oxo-1,6-dihydropyridin-3-yl)phenyl)-3,4,6,7,8,9-hexahydropyrazino[1,2-a]indol-1(2H)-one]
21 | 16 nM | CN1CCC(c2ccc(Nc3nc(-c4cc(F)cc(N5CCn6c(cc7c6CC(C)(C)C7)C5=O)c4CO)cn(C)c3=O)cc2)CC1 [Example 294, 10-[5-Fluoro-2-(hydroxymethyl)-3-(4-methyl-6-{[4-(1-methylpiperidin-4-yl)phenyl]amino}-5-oxo-4,5-dihydropyrazin-2-yl)phenyl]-4,4-dimethyl-1,10-diazatricyclo[6.4.0.0^2,6]dodeca-2(6),7-dien-9-one]
22 | 4.2 nM | CN(C)CCOc1ccc(Nc2cc(-c3cc(F)cc(N4CCn5c(cc6c5CCCC6)C4=O)c3CO)cn(C)c2=O)nc1 [Example 297, 2-(3-(5-(5-(2-(Dimethylamino)ethoxy)pyridin-2-ylamino)-1-methyl-6-oxo-1,6-dihydropyridin-3-yl)-5-fluoro-2-(hydroxymethyl)phenyl)-3,4,6,7,8,9-hexahydropyrazino[1,2-a]indol-1(2H)-one]
23 | 5.3 nM | CN1CC(c2ccc(Nc3nc(-c4cc(F)cc(N5CCc6c(sc7c6CC(C)(C)C7)C5=O)c4CO)cn(C)c3=O)cc2)C1 [Example 298, 10-[5-fluoro-2-(hydroxymethyl)-3-(4-methyl-6-{[4-(1-methylazetidin-3-yl)phenyl]amino}-5-oxopyrazin-2-yl)phenyl]-4,4-dimethyl-7-thia-10-azatricyclo[6.4.0.0^2,6]dodeca-1(8),2(6)-dien-9-one]
24 | 6.1 nM | Cn1cc(-c2cccc(N3CCn4c(cc5c4CCCC5)C3=O)c2CO)cc(Nc2ccc(N3CCNCC3)cn2)c1=O [Example 301, 2-(2-(Hydroxymethyl)-3-(1-methyl-6-oxo-5-(5-(piperazin-1-yl)pyridin-2-ylamino)-1,6-dihydropyridin-3-yl)phenyl)-3,4,6,7,8,9-hexahydropyrazino[1,2-a]indol-1(2H)-one]
